Measurements published in ChEMBL document CHEMBL1157273, “Sphaeric acid, a new succinic acid derivative from a Sphaeropsis sp” (J Nat Prod, 1999).
The source made the active and inactive calls.

Experiments:
[1] = tested on: Geotrichum candidum; assay: Antimicrobial activity against Geotrichum candidum by disk diffusion assay; format: functional, organism-based
[2] = tested on: Pseudomonas aeruginosa; assay: Antimicrobial activity against Pseudomonas aeruginosa by disk diffusion assay; format: functional, organism-based
[3] = tested on: Artemia salina; assay: Toxicity in Artemia salina after 24 hrs; format: organism-based; conditions: in vivo
[4] = tested on: Candida albicans; assay: Antimicrobial activity against Candida albicans by disk diffusion assay; format: functional, organism-based
[5] = tested on: Aspergillus niger; assay: Antimicrobial activity against Aspergillus niger by disk diffusion assay; format: functional, organism-based
[6] = tested on: Escherichia coli; assay: Antimicrobial activity against Escherichia coli by disk diffusion assay; format: functional, organism-based
[7] = tested on: Fusarium oxysporum; assay: Antimicrobial activity against Fusarium oxysporum by disk diffusion assay; format: functional, organism-based

Measured: Activity

CCCCCCCC[C@H](C(=O)O)[C@H](C)C(=O)O [SPHAERIC ACID]
inactive: [1] | [2] | [4] | [5] | [6] | [7]
Non-toxic: [3]
